Data on two compounds can be found in patent US20180318355A1, “METHODS AND COMPOSITIONS FOR IMPROVED TISSUE REGENERATION BY SUPPRESION OF INTERFERIN-GAMMA AND TUMOR NECROSIS FACTOR-ALPHA” (Alfred E. Mann Institute for Biomedical Eng. at the …, priority 2011, published 2018).

What all share (assay type): cell-based, mouse
Assay [1] has as its system Fas, caspase 8, caspase 3. Nature of the assay: Western blot of Fas, cleaved caspase 8 and cleaved caspase 3 in BMMSCs. Conditions: siRNA or inhibitor treatment before IFN-γ/TNF-α. Here is the method: Western blot analysis. Total protein was extracted using M-PER mammalian protein extraction reagent (Thermo, Rockford, Ill.). Nuclear protein was obtained using NE-PER nuclear and cytoplasmic extraction reagent (Thermo). Protein was applied and separated on 4-12% NuPAGE gel (Invitrogen) and transferred to Immobilon™-P membranes (Millipore). The membranes were blocked with 5% non-fat dry milk and 0.1% tween-20 for 1 hour, followed by incubation with the primary antibodies (1:20¬1000 dilution) at 4° C. overnight. Horseradish peroxidase-conjugated IgG (Santa Cruz Biosciences; 1:10,000) was used to treat the membranes for 1 hour, and enhanced with a SuperSignal® West Pico Chemiluminescent Substrate (Thermo). The bands were detected on BIOMAX MR films (Kodak, Rochester, N.Y.). Each membrane was also stripped using a stripping buffer (Thermo) and reprobed with anti-β-actin antibody to quantify the amount of loaded protein.
(§1) SiRNAs for Fas, TNFR2, IKK, FLIP and XIAP were used to treat the BMMSCs according to the manufacture's instruction, and IFN-γ and TNF-α were added for 24 hrs. Inhibitors for internalization (Latrunculin A, 0.2 μM), pan caspase (Z-VAD (OMe)-FMK, 50 μM), caspase 8 ([…], 20 μM) and caspase 3 (Z-DEVD-FMK, 20 µM) were used to treat the BMMSCs at 4 hrs before IFN-γ and TNF-α were added. Cell apoptosis were analysis by immunofluorescence staining and FACS^Calibur (Annexin V-PE apoptosis detection kit I) and Western blot analysis for caspase 8, cleaved caspase 8, caspase 3 and cleaved caspase 3.
For orientation: In western blotting, separated proteins are transferred to a membrane and probed.

In a further assay the test system is BMMSCs. Kind of assay: siRNA and inhibitors: IFN-γ/TNF-α-induced BMMSC death. Conditions: siRNA or inhibitor treatment before IFN-γ/TNF-α, toluidine blue staining. Here is the method:
as §1

A further assay relates to Fas. Kind of assay: Fas internalization (immunocytochemical staining). The settings on record: caspase inhibitor in IFN-γ/TNF-α-treated BMMSCs vs control group. Here is the method: as §1
Fas internalization. P1 BMMSCs were seeded to 2-well chamber slide. IFN-γ (50 ng/ml) was added to pre-treat BMMSCs for 24 hours, and then TNF-α (20 ng/ml) was added. At the 0.5, 1, 2, 4 hours after TNF-α was added, the cells were washed by PBS twice, and fixed with 4% PFA for 15 min. After treated by Triton-X 15 min, the cells were blocked with normal serum matched to secondary antibodies, incubated with 1 μg/ml anti-Fas (Santa Cruz) antibody at room temperature for 2 hours, treated with Rhodamin-conjugated secondary antibodies (1:200, Jackson ImmunoResearch). Then the cells were incubated with ([…] (1:40; Invitrogen) at room temperature for 20 min, and were mounted by vectashield mounting medium DAPI (Vector Laboratories).

Where a SMILES comes first, the peptide text is derived from it. The star is where a group is joined. Cbz = O=C(OCc1ccccc1)*; CH2F = FC*

As for `COC(=O)CC[C@H](NC(=O)[C@H](CC(=O)OC)NC(=O)OCc1ccccc1)C(=O)N[C@H](C(=O)N[C@@H](CC(=O)OC)C(=O)CF)C(C)C` [Caspase 3 inhibitor, Z-DEVD-FMK], in assay [1], the “cleaved caspase 3 in IFN-γ/TNF-α-treated BMMSCs” value is reported as “partially inhibition” and the “cleaved caspase 8 in IFN-γ/TNF-α-treated BMMSCs” value is on record as “no inhibitive effect”. The “IFN-γ/TNF-α-induced BMMSC death” value in the assay with BMMSCs is recorded as “rescuing IFN-γ/TNF-α-induced BMMSC death”. Besides, in the assay on Fas, the “number of BMMSCs with Fas internalization” value is on record as “reduced number of Fas internalization”.
With `CC[C@H](C)[C@H](NC(=O)OCc1ccccc1)C(=O)N[C@@H](CCC(=O)OC)C(=O)N[C@H](C(=O)N[C@@H](CC(=O)OC)C(=O)CF)[C@@H](C)O` [Caspase 8 inhibitor, 2-IETD-FMK] (Cbz-IE(OMe)TD(OMe)-CH2F), in assay [1], the “cleaved caspase 3 in IFN-γ/TNF-α-treated BMMSCs” value was “reduce levels” and the “cleaved caspase 8 in IFN-γ/TNF-α-treated BMMSCs” value is reported as “reduce levels”. Further, the “IFN-γ/TNF-α-induced BMMSC death” value with BMMSCs is reported as “rescuing INF-γ/TNF-α-induced cell death”. In the assay on Fas, the “number of BMMSCs with Fas internalization” value is recorded as “reduced number of Fas internalization”.
